{"source": "patent US20170079966A1", "about": "“INHIBITION OF TUMOR CELL INTERACTIONS WITH THE MICROENVIRONMENT RESULTING IN A REDUCTION IN TUMOR GROWTH AND DISEASE PROGRESSION” (Deciphera Pharmaceuticals, LLC, priority 2014, published 2017)", "key": {"[1]": {"test_system": "SK-MEL-28 and SK-MEL-5 cells (pERK, pMET, AKT)", "test": "HGF-stimulated melanoma cell signal transduction assay", "type": "cell-based", "conditions": "50 nM, 50 ng/mL HGF 1 hr", "experimental": "SK-MEL-5 and SK-MEL-28 cells were added to 12-well plates at 450,000 and 250,000 cells/well, respectively, and incubated overnight. […] Cells were then stimulated with 50 ng/mL HGF for 1 hr. Antibodies were obtained from Cell Signaling Technology."}, "[2]": {"test_system": "HMVEC capillary tube formation", "test": "HMVEC capillary tube formation", "type": "cell-based", "conditions": "Homo sapiens", "experimental": "Growth factor reduced Matrigel gel solution (BD Biosciences, San Jose, Calif.) was dispensed using pre-chilled tips into each well of a pre-chilled 96-well black, clear bottom, tissue-culture treated plate. The plate was incubated at 37° C. for 1 h to allow the matrix to form a gel. […] The cell/Compound 1 suspensions were then transferred to the Matrigel plate wells and incubated overnight. The final concentration of DMSO in the assay was 0.5%. The next day, cells were stained with Calcein-AM dye (Life Technologies). Images obtained via fluorescent microscopy were analyzed for tube length using ImagePro Analyzer (Media Cybernetics, Rockville, Md.) with a macro to automatically detect and measure tube formation."}, "[3]": {"test_system": "PyMT mammary tumor", "test": "PyMT syngeneic breast cancer model", "type": "in vivo, mice", "experimental": "Female FVB/NJ mice were implanted in the 4th mammary fat pad with one million cells that had been dissociated from tumor fragments from MMTV-PyMT donor mice. […] Mice (n=10/group) were dosed for three weeks, then, primary tumor and lungs were collected and fixed. Lung sections were stained with H&E at Premier Laboratory. Lung metastases (≧10 cells) were counted manually via microscopy. Data were analyzed via one-way analysis of variance (ANOVA), with post-hoc analysis by the method of Holm-Sidak. For analysis of TIE2-positive macrophages, tumor sections were stained with TIE2 and CD31 antibodies at Premier Laboratory. The density of TIE2-positive cells at the stroma/tumor boundary in each tumor was scored using 0=no staining, 1=low, 2=medium, and 3=high."}, "[4]": {"test_system": "B16/F10 cells", "test": "B16/F10 metastatic melanoma model", "conditions": "Compound 1 15 mg/kg"}, "[5]": {"test_system": "GSC11 glioblastoma cells", "test": "GSC11 glioma stem cell patient-derived xenograft model (tumor volume, immunohistochemistry)", "type": "in vivo, mice", "experimental": "For the in vivo experiments, 4- to 6-week-old female nude mice that were strictly inbred at The University of Texas MD Anderson Cancer Center and maintained in the MD Anderson Veterinary in accordance with institutional guidelines were used. For the in vivo experiments, GSC11 (5×10^5) or GSC17 (5×10^4) glioblastoma cells were implanted intracranially into nude mice. […] Control mice for these cohorts were treated with phosphate-buffered saline by i.p. injection and/or with 0.4% HPMC vehicle by oral gavage. One cohort of 10 mice per group were treated continuously and followed for survival. A separate cohort of 9 mice per group were treated continuously until the designated time point, and the tumors from these mice were extracted at 3, 4, 5 weeks in GSC11 xenograft mice model and at 3.5, 4.5, 5.5 weeks in GSC17 xenograft mice model after the start of treatment.\nWhen the mice treated for the designated time period developed signs and symptoms of advanced tumors, they were euthanized, and their brains were removed, fixed in 4% formaldehyde for 24 hours, and embedded in paraffin. The tissues were then sectioned serially (4 μm) and stained with hematoxylin and eosin (Sigma-Aldrich). Tumor formation and phenotype were determined by histologic analysis of the hematoxylin- and eosin-stained sections. The tumor volume, greatest longitudinal diameter (length), and greatest transverse diameter (width) were measured using an external caliper and Adobe Illustrator software. The tumor volumes were calculated by the following formula: volume=½(length×width^2).\nFor immunohistochemical analyses, the tissue sections were deparaffinized and subjected to graded rehydration. After blocking the tissue in 5% horse and goat serum and antigen retrieval solution (citrate buffer, pH 6.0), we incubated the tissue sections overnight at 4° C. with primary antibodies against Factor VIII (1:500; A0082, Dako) to assess microvessel formation, vimentin (1:100; M0725, Dako) to assess mesenchymal marker expression, F4/80 (1:50; 123102, BioLegend) to assess monocyte infiltration, nestin (1:300; Ab6142, Abcam) to assess glioma stem cell marker expression, HGF (1:200; LS-B4657, LSBio), and TIE2 (1:50; Santa Cruz Biotechnology) to assess TIE2-expressing monocyte infiltration. Texas red fluorescein isothiocyanate-conjugated secondary antibodies or anti-rat immunoglobulin G antibodies (Invitrogen) were used for 1 hour at room temperature.\nAll statistical analyses were conducted with the GraphPad 6 (InStat) software for Windows 7. Survival analysis was conducted using the Kaplan-Meier method, and differences in survival between treatment groups were assessed using the log-rank test. All other comparisons were performed using an unpaired two-tailed Student t-test. Summary statistics for continuous data are expressed as the mean±standard error of the mean. P values less than 0.05 were considered statistically significant. The nestin staining was assessed using the Image-Pro Plus system version 7.0 (Media Cybernetics) in ×10 fields of at least three tumor samples per group with three to four different sections per tumor sample."}, "[6]": {"test_system": "macrophage-mediated intravasation of human breast cancer cells (MDA-MB 231-GFP)", "test": "In vitro intravasation-directed transendothelial migration (iTEM) assay", "type": "cell-based", "conditions": "BAC1.2F5 macrophages, HUVEC monolayer", "experimental": "In vitro intravasation-directed transendothelial migration (iTEM) assay protocol. The iTEM assay was performed in a Transwell two-chamber apparatus. The Transwell was prepared so that tumor cell transendothelial migration of tumor cells was in the intravasation direction (from subluminal side to luminal side of the endothelium). We define this as the iTEM assay. To prepare the endothelial monolayer, the underside of each Transwell was coated with 50 μl of Matrigel (2.5 μg/ml; Invitrogen). About 100,000 HUVEC cells were plated on the Matrigel-coated underside of the Transwells. Transwells were then flipped onto a 24-well plate containing 200 μl of α-MEM (minimum essential medium) supplemented with 10% fetal bovine serum (FBS)+3000 U of CSF-1 and incubated until the endothelium formed impermeable monolayers. […] Once impermeable by these criteria, the Transwell assay was used for iTEM studies. All the assays were run in the presence of BAC1.2F5 murine macrophage cell line and MDA-MB 231-GFP human breast cancer cells. Transwells were imaged using a Leica SP5 confocal microscope using a 60×1.4 numerical aperture objective and processed using ImageJ [National Institutes of Health (NIH)] and IMAMS programs. Quantitation was performed by counting the number of tumor cells that had crossed the endothelium within the same field of view (60×, 10 random fields)."}}, "note": "Like-named read-outs stand apart in the source and are kept apart here.", "data": [{"smiles": "O=C(Nc1cc(Oc2cc(F)c(NC(=O)C3(C(=O)Nc4ccc(F)cc4)CC3)cc2F)ccn1)C1CC1", "note": "[Compound 1, N-(4-(2-(cyclopropanecarboxamido)pyridin-4-yloxy)-2,5-difluorophenyl)-N′-(4-fluorophenyl)cyclopropane-1,1-dicarboxamide]", "values": [{"measurement": "HGF-induced activation of MET and AKT", "setting": "[1]", "result": "inhibited"}, {"measurement": "IC50", "setting": "[2]; 40 ng/mL HGF, read-out: IC50, capillary tube formation upon stimulation with HGF", "result": 11, "unit": "nM"}, {"measurement": "IC50", "setting": "[2]; 100 ng/mL VEGF, read-out: IC50, capillary tube formation upon stimulation with VEGF", "result": 58, "unit": "nM"}, {"measurement": "IC50", "setting": "[2]; 200 ng/mL ANG2, read-out: IC50, capillary tube formation upon stimulation with ANG2", "result": 7, "unit": "nM"}, {"measurement": "Tumor growth inhibition (TGI)", "setting": "[3]; after dosing for three weeks, paclitaxel 10 mg/kg i.v. every 5 days, Compound 1 15 mg/kg twice daily", "result": 69, "unit": "%"}, {"measurement": "Reduction of TIE2 score (stromal density of TIE2+ cells)", "setting": "[3]; same dosing", "result": 50, "unit": "%"}, {"measurement": "Reduction of lung metastases compared to controls", "setting": "[3]; same dosing", "result": 74, "unit": "%"}, {"measurement": "T-C", "setting": "[4]", "result": "> 4.3", "unit": "days"}, {"measurement": "Treated animals with metastases on Day 21 (ex vivo BLI)", "setting": "[4]; 2/12 animals", "result": 16.6, "unit": "%"}, {"measurement": "Inhibition of the development of pulmonary metastases", "setting": "[4]; Day 21", "result": 72, "unit": "%"}, {"measurement": "% T/C, tumor growth on Day 21", "setting": "[4]; treatment from Day 0", "result": 30, "unit": "%"}, {"measurement": "Tumor volume at 3 weeks", "setting": "[5]; GSC11, bevacizumab 10 mg/kg i.p. twice per week, Compound 1 10 mg/kg oral twice daily", "result": "1.2±0.5", "unit": "mm^3"}, {"measurement": "Tumor volume at 4 weeks", "setting": "[5]; GSC11, same dosing", "result": "9.8±2.8", "unit": "mm^3"}, {"measurement": "Tumor volume at 5 weeks", "setting": "[5]; GSC11, same dosing", "result": "32.3±14.6", "unit": "mm^3"}, {"measurement": "Factor VIII-positive area", "setting": "[5]; GSC11 model", "result": "1.1±0.5", "unit": "%"}, {"measurement": "Nestin-positive area", "setting": "[5]; GSC11 xenograft mouse model", "result": "17.7±2.7", "unit": "%"}, {"measurement": "Mesenchymal tumor marker vimentin / EMT (immunohistochemistry)", "setting": "[5]; GSC-11 glioma model", "result": "does not cause elevation of vimentin"}, {"measurement": "Macrophage infiltration into tumor (F4/80 IHC staining)", "setting": "[5]; GSC-11 glioma xenograft model", "result": "does not result in therapy resistance-mediated increases in macrophage infiltration"}, {"measurement": "IC50", "setting": "[6]", "result": "< 10", "unit": "nM"}]}]}
